Each structure is given as a SMILES string.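 Values below derive from 48-hour exposures of cells grown in 96-well plates, with endpoints linearly interpolated between the two concentrations bracketing the appropriate inhibition level. GI50: concentration for 50% inhibition of growth. TGI: concentration producing complete growth inhibition.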

Test in all cases: NCI-60 cell line screen, 48 h
In assay [1] the test system is CCRF-CEM leukemia.
Assay [2] relates to DU-145 prostate.
Assay [3] has as its system HCT-15 colon.
Assay [4] has as its system MDA-MB-231 breast.
The test system of assay [5] is NCI-H522 lung.
Assay [6] deals with RXF 393 renal.
The subject of assay [7] is SK-OV-3 ovarian.
The subject of assay [8] is SN12C renal.
The subject of assay [9] is SW-620 colon.
Assay [10] relates to UO-31 renal.

On to `COC(=O)Nc1nc2ccc(Sc3ccccc3)cc2[nH]1`, for which the GI50 in assay [1] is 249 nM; in assay [2], 336 nM; in [3], 82.5 nM; in assay [4], 476 nM; in [5], 113 nM; in [6] it was 154 nM. In addition, the GI50 is 179 nM in assay [7], 524 nM in [8], 107 nM in [9] and 848 nM in [10]. Besides, the TGI in assay [1] was greater than 100000 nM; in assay [2] it was 10800 nM; in assay [3] it was 23000 nM; in [4], 21500 nM; in assay [5] it was 587 nM; in assay [6], 510 nM. The TGI in [7] is 684 nM; in [8], 25700 nM; in assay [9] it was greater than 48300 nM; in assay [10], 20500 nM.
On to `NC(=O)NC(=O)C1CCCCC1C(=O)O` (stereo not given), for which the TGI in assay [1], in assay [2], in assay [3], in assay [4], in assay [5] and in [6] was greater than 100000 nM in each case. The TGI in [7], in assay [8], in assay [9] and in [10] was greater than 100000 nM each time.
In the case of `CC(C)CNc1nc(N=[N+]=[N-])nc(NCC(C)C)n1`, the GI50 in [1], in assay [2], in [3], in assay [4], in assay [5] and in [6] was greater than 10000 nM throughout. The GI50 in [7], in assay [8], in assay [9] and in assay [10] was greater than 10000 nM each time. Also, the TGI in assay [1], in [2], in assay [3], in [4], in [5] and in assay [6] was greater than 10000 nM each time. Further, the TGI in assay [7], in assay [8], in [9] and in assay [10] was greater than 10000 nM in each case.
With `C[C@@H](Oc1cc(-c2cnn(C3CC4(CCCNC4)C3)c2)cnc1N)c1c(Cl)ccc(F)c1Cl` (stereo not given in full), the GI50 is 936 nM in assay [1]; 1880 nM in assay [2]; 1300 nM in assay [3]; 1290 nM in assay [4]; 1350 nM in assay [5]; 1280 nM in assay [6]. Moreover, the GI50 in assay [7] is 2610 nM; in assay [8], 1500 nM; in [9], 597 nM; in [10] it was 1760 nM. Also, the TGI in assay [1] amounted to 4770 nM; in assay [2] it was 6920 nM; in assay [3] it was 3160 nM; in assay [4] it was 3110 nM; in assay [5], 2790 nM; in [6], 2620 nM. For the same molecule, the TGI in assay [7] came to 6960 nM; in assay [8], 8970 nM; in assay [9], 2360 nM; in assay [10], 3900 nM.
As to `Brc1ccc(Br)nn1`, the GI50 in assay [1] is 404 nM; in assay [2] it was 3730 nM; in [3], 1740 nM; in [4], 1830 nM; in assay [5], 243 nM; in assay [6], 1320 nM. In addition, the GI50 is 8640 nM in [7], 1620 nM in [8], 1660 nM in assay [9] and 2620 nM in assay [10]. Further, the TGI in [1] worked out at 3650 nM; in [2], 13400 nM; in [3], 3660 nM; in [4] it was 4230 nM; in assay [5], 928 nM; in assay [6], 2630 nM. Besides, the TGI in assay [7] came to 20800 nM; in [8] it was 3530 nM; in assay [9], 6540 nM; in [10] it was 14900 nM.
Take `C=C1C(=O)OC2CC3(C)OC3C3OC3C3=CC(OC3=O)C12` (stereo not given): the GI50 in assay [1] is 1050 nM; in assay [2] it was 16600 nM; in assay [3] it was 2400 nM; in [4], 8330 nM; in assay [5] it was 299 nM; in assay [6], 1810 nM. Further, the GI50 in [7] was 25400 nM; in assay [8], 11300 nM; in [9], 1350 nM; in assay [10], 2840 nM. Besides, the TGI in assay [1] came to 3200 nM; in [2], 34300 nM; in assay [3] it was 6450 nM; in assay [4], 22700 nM; in assay [5], 904 nM; in assay [6] it was 3660 nM. Besides, the TGI in assay [7] is greater than 57000 nM; in assay [8] it was 25200 nM; in assay [9] it was 3040 nM; in [10], 7540 nM.
For the molecule `COc1ccc(C2C3=C(COC3=O)N(CCO)c3cc4c(cc32)OCCO4)cc1OC` (stereo not given), the GI50 in assay [1] is 2020 nM; in assay [2] it was 1930 nM; in assay [3], 5390 nM; in assay [4], 6780 nM; in assay [5] it was 270 nM; in assay [6], 807 nM. Besides, the GI50 in [7] is 1980 nM; in assay [8], greater than 15700 nM; in assay [9] it was 1800 nM; in assay [10], 4090 nM. In addition, the TGI is greater than 50000 nM in assay [1]; 14900 nM in [2]; greater than 50000 nM in [3]; 36500 nM in [4]; 1380 nM in [5]; 2860 nM in assay [6]. Also, the TGI in assay [7], in assay [8], in assay [9] and in assay [10] was greater than 50000 nM in each case.
Consider `CN(C)CCOc1nc2ccccc2c2c1-c1ccc(Cl)cc1C2=O`, for which the GI50 in assay [1] was 363 nM; in assay [2] it was 444 nM; in assay [3], 464 nM; in assay [4], 1100 nM; in [5], 573 nM; in assay [6], 1070 nM. Further, the GI50 is 1760 nM in [7], 389 nM in assay [8], 340 nM in [9] and 222 nM in assay [10]. In addition, the TGI in assay [1] amounted to 2460 nM; in assay [2] it was 1350 nM; in assay [3] it was 1920 nM; in assay [4] it was 3000 nM; in [5] it was 2090 nM; in [6], 2550 nM. The TGI is greater than 37000 nM in [7], 2360 nM in assay [8], 1530 nM in assay [9] and 1270 nM in assay [10].

Source of the values: PubChem BioAssay (NCI).
